The values that follow come from BindingDB's records for doi:10.1021/jm010566d (University Center For Pharmacy, 2002).

This test in a line: The binding affinity at 5-hydroxytryptamine 1D receptor was determined using [3H]5-CT.

By Ki is commonly meant the equilibrium dissociation constant of an inhibitor or competing ligand from its target. `COc1cccc2c1N1CCN(C)C[C@@H]1c1ccccc1C2` [(+)-65-Methoxy-2-methyl-1,2,3,4,9,13b-hexahydro-2,4a-diaza-tribenzo[a,c,e]cycloheptene] displayed an inhibition constant Ki of 1470 nM.
